Our source for the EC50 values is US10294234B2, “HIV inhibitor compounds” (priority 2017, dated 2019).

Usually EC50 stands for the concentration giving half of the maximal effect.

The first test has as its system HIV-1 (IIIB) in MT-4 cells. The test is described as follows: MT-4 HIV assay. The test is classed as cell-based. Particulars: Human immunodeficiency virus 1, MT4, 120 h. In short, it runs like this:
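Antiviral activity was read by Cell Titer Glo after a 5-day, 37 °C culture of MT-4 cells pre-infected with a 1:250 dilution of HIV-1 (IIIB). Compounds were tested as threefold dilution series in complete RPMI. Controls were no drug, mock infection and 5 uM AZT.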
Regarding `COC(=O)N[C@H](C(=O)N[C@H](C(=O)N[C@@H](Cc1ccc(C#Cc2cnc(N3CC4CC(C3)N4C3COC3)nc2)cc1)[C@@H](O)CN(Cc1c(F)cc(-c2ccn(CC(F)F)n2)cc1F)NC(=O)[C@@H](NC(=O)OC)C(C)(C)C)C(C)(C)C)C(C)C` [Example 222, Methyl ((5S,8S,11S,12S,17S)-8-(tert-butyl)-14-(4-(1-(2,2-difluoroethyl)-1H-pyrazol-3-yl)-2,6-difluorobenzyl)-12-hydroxy-5-isopropyl-18,18-dimethyl-11-(4-((2-(6-(oxetan-3-yl)-3,6-diazabicyclo[3.1.1]heptan-3-yl)pyrimidin-5-yl)ethynyl)benzyl)-3,6,9,16-tetraoxo-2-oxa-4,7,10,14,15-pentaazanonadecane-17-yl)carbamate], it took 12.9 nM to reach a half-maximal effect (EC50). With `COC(=O)N[C@H](C(=O)N[C@H](C(=O)N[C@@H](Cc1ccc(C#Cc2cnc(N3CC4CC(C3)N4C3COC3)nc2)cc1)[C@@H](O)CN(Cc1c(F)cc(-c2ccn(CC(F)F)n2)cc1F)NC(=O)[C@@H](NC(=O)OC)C(C)(C)C)C(C)(C)C)C(C)(C)C` [Example 223, Methyl ((5S,8S,11S,12S,17S)-5,8-di-tert-butyl-14-(4-(1-(2,2-difluoroethyl)-1H-pyrazol-3-yl)-2,6-difluorobenzyl)-12-hydroxy-18,18-dimethyl-11-(4-((2-(6-(oxetan-3-yl)-3,6-diazabicyclo[3.1.1]heptan-3-yl)pyrimidin-5-yl)ethynyl)benzyl)-3,6,9,16-tetraoxo-2-oxa-4,7,10,14,15-pentaazanonadecane-17-yl)carbamate], the EC50 is 12.9 nM. As to `COC(=O)N[C@H](C(=O)N[C@@H](Cc1ccc(C#Cc2ccc(N3CCN(C(C)=O)CC3)nc2)cc1)[C@@H](O)CN(Cc1c(F)cc(-c2ccn(C)n2)cc1F)NC(=O)[C@@H](NC(=O)OC)C(C)(C)C)C(C)(C)C` [Example 228], the EC50 turned out to be 1.66 nM.

Still in this test, the particulars now being: Human immunodeficiency virus 1, MT4, 120 h; HIV-1 (IIIB), MT-4 cells, 5 days, Cell Titer Glo; read-out: EC50.
On to `COC(=O)N[C@H](C(=O)NN(Cc1c(F)cc(-c2ccccn2)cc1F)C[C@H](O)[C@H](Cc1ccc(C#Cc2ccc(N3CC4CCC(C3)N4C(=O)[C@@H]3CCCO3)nc2)cc1)NC(=O)[C@@H](NC(=O)OC)C(C)(C)C(F)(F)F)C(C)(C)C` [Example 224, Methyl ((5S,8S,9S,14S)-11-(2,6-difluoro-4-(pyridin-2-yl)benzyl)-9-hydroxy-15,15-dimethyl-3,6,13-trioxo-8-(4-((6-(8-((S)-tetrahydrofuran-2-carbonyl)-3,8-diazabicyclo [3.2.1]octan-3-yl)pyridin-3-yl)ethynyl)benzyl)-5-(1,1,1-trifluoro-2-methylpropan-2-yl)-2-oxa-4,7,11,12-tetraazahexadecan-14-yl)carbamate], for which the EC50 was 4.12 nM. As for `COC(=O)N[C@H](C(=O)N[C@@H](Cc1ccc(C#Cc2ccc(N3CC4CCC(C3)N4C(=O)[C@@H]3CCCO3)nc2)cc1)[C@@H](O)CN(Cc1c(F)cc(-c2ccccn2)cc1F)NC(=O)[C@@H](NC(=O)OC)C(C)(C)C)C(C)(C)C` [Example 225, Methyl ((5S,8S,9S,14S)-5-(tert-butyl)-11-(2,6-difluoro-4-(pyridin-2-yl)benzyl)-9-hydroxy-15,15-dimethyl-3,6,13-trioxo-8-(4-((6-(8-((S)-tetrahydrofuran-2-carbonyl)-3,8-diazabicyclo[3.2.1]octan-3-yl)pyridin-3-yl)ethynyl)benzyl)-2-oxa-4,7,11,12-tetraazahexadecan-14-yl)carbamate], the EC50 came out at 4.26 nM. The same measure, in the same setting: the result for `COC(=O)N[C@H](C(=O)N[C@@H](Cc1ccc(C#Cc2ccc(N3CC4CCC(C3)N4c3ncccn3)nc2)cc1)[C@@H](O)CN(Cc1c(F)cc(-c2ccn(C)n2)cc1F)NC(=O)[C@@H](NC(=O)OC)C(C)(C)C)C(C)(C)C` [Example 226] reads 14.9 nM; that for `COC(=O)N[C@H](C(=O)N[C@@H](Cc1ccc(C#Cc2ccc(N3CC4CCC(C3)N4C(=O)[C@@H]3CCCO3)nc2)cc1)[C@@H](O)CN(Cc1c(F)cc(-c2ccn(C)n2)cc1F)NC(=O)[C@@H](NC(=O)OC)C(C)(C)C)C(C)(C)C` [Example 227, Methyl ((5S,8S,9S,14S)-5-(tert-butyl)-11-(2,6-difluoro-4-(1-methyl-1H-pyrazol-3-yl)benzyl)-9-hydroxy-15,15-dimethyl-3,6,13-trioxo-8-(4-((6-(8-((S)-tetrahydrofuran-2-carbonyl)-3,8-diazabicyclo[3.2.1]octan-3-yl)pyridin-3-yl)ethynyl)benzyl)-2-oxa-4,7,11,12-tetraazahexadecan-14-yl)carbamate], 2.9 nM; that for `COC(=O)N[C@H](C(=O)NN(Cc1ccc(-c2cnn(C(F)F)c2)cc1F)C[C@H](O)[C@H](Cc1ccc(C#Cc2ccc(N3CC4CCC(C3)N4C3COC3)nc2)cc1)NC(=O)[C@@H](NC(=O)OC)C(C)(C)C(F)(F)F)C(C)(C)C` [Example 230, methyl ((5S,8S,9S,14S)-11-(4-(1-(difluoromethyl)-1H-pyrazol-4-yl)-2-fluorobenzyl)-9-hydroxy-15,15-dimethyl-8-(4-((6-(8-(oxetan-3-yl)-3,8-diazabicyclo[3.2.1]octan-3-yl)pyridin-3-yl)ethynyl)benzyl)-3,6,13-trioxo-5-(1,1,1-trifluoro-2-methylpropan-2-yl)-2-oxa-4,7,11,12-tetraazahexadecan-14-yl)carbamate], 3.97 nM. Still for that read-out and setting: the result for `COC(=O)N[C@H](C(=O)N[C@@H](Cc1ccc(C#Cc2ccc(N3CC4CCC(C3)N4C3COC3)nc2)cc1)[C@@H](O)CN(Cc1c(F)cc(-c2ccccn2)cc1Cl)NC(=O)[C@@H](NC(=O)OC)C(C)(C)CF)C(C)(C)CF` [Example 234, methyl ((5S,8S,9S,14S)-11-(2-chloro-6-fluoro-4-(pyridin-2-yl)benzyl)-16-fluoro-5-(1-fluoro-2-methylpropan-2-yl)-9-hydroxy-15,15-dimethyl-8-(4-((6-(8-(oxetan-3-yl)-3,8-diazabicyclo[3.2.1]octan-3-yl)pyridin-3-yl)ethynyl)benzyl)-3,6,13-trioxo-2-oxa-4,7,11,12-tetraazahexadecan-14-yl)carbamate] reads 2.54 nM; that for `COC(=O)N[C@H](C(=O)N[C@@H](Cc1ccc(C#Cc2ccc(N3CC4CCC(C3)N4C3COC3)nc2)cc1)[C@@H](O)CN(Cc1ccc(-c2ccc(F)cn2)cc1F)NC(=O)[C@@H](NC(=O)OC)C(C)(C)C(F)(F)F)C(C)(C)C(F)(F)F` [Example 235, methyl ((5S,8S,9S,14S)-16,16,16-trifluoro-11-(2-fluoro-4-(5-fluoropyridin-2-yl)benzyl)-9-hydroxy-15,15-dimethyl-8-(4-((6-(8-(oxetan-3-yl)-3,8-diazabicyclo[3.2.1]octan-3-yl)pyridin-3-yl)ethynyl)benzyl)-3,6,13-trioxo-5-(1,1,1-trifluoro-2-methylpropan-2-yl)-2-oxa-4,7,11,12-tetraazahexadecan-14-yl)carbamate], 16.7 nM. Consider `COC(=O)N[C@H](C(=O)N[C@@H](Cc1ccc(C#Cc2ccc(N3CC4CCC(C3)N4CC(F)F)nc2)cc1)[C@@H](O)CN(Cc1c(F)cc(-c2ccccn2)cc1Cl)NC(=O)[C@@H](NC(=O)OC)C(C)(C)CF)C(C)(C)CF` [Example 238, methyl ((5S,8S,9S,14S)-11-(2-chloro-6-fluoro-4-(pyridin-2-yl)benzyl)-8-(4-((6-(8-(2,2-difluoroethyl)-3,8-diazabicyclo[3.2.1]octan-3-yl)pyridin-3-yl)ethynyl)benzyl)-16-fluoro-5-(1-fluoro-2-methylpropan-2-yl)-9-hydroxy-15,15-dimethyl-3,6,13-trioxo-2-oxa-4,7,11,12-tetraazahexadecan-14-yl)carbamate], for which the EC50 was determined as 12.3 nM.

Consider `COC(=O)N[C@H](C(=O)N[C@@H](Cc1ccc(C#Cc2ccc(N3CC4CCC(C3)N4C(C)C)nc2)cc1)[C@@H](O)CN(Cc1c(F)cc(-c2ccccn2)cc1F)NC(=O)[C@@H](NC(=O)OC)C(C)(C)C(F)(F)F)C(C)(C)C(F)(F)F` [Example 240, methyl ((5S,8S,9S,14S)-11-(2,6-difluoro-4-(pyridin-2-yl)benzyl)-16,16,16-trifluoro-9-hydroxy-8-(4-((6-(8-isopropyl-3,8-diazabicyclo[3.2.1]octan-3-yl)pyridin-3-yl)ethynyl)benzyl)-15,15-dimethyl-3,6,13-trioxo-5-(1,1,1-trifluoro-2-methylpropan-2-yl)-2-oxa-4,7,11,12-tetraazahexadecan-14-yl)carbamate], for which the EC50 is 5.62 nM. Consider `CCN1C2CCC1CN(c1ccc(C#Cc3ccc(C[C@H](NC(=O)[C@@H](NC(=O)OC)C(C)(C)C(F)(F)F)[C@@H](O)CN(Cc4c(F)cc(-c5ccccn5)cc4F)NC(=O)[C@@H](NC(=O)OC)C(C)(C)C(F)(F)F)cc3)cn1)C2` [Example 241, methyl ((5S,8S,9S,14S)-11-(2,6-difluoro-4-(pyridin-2-yl)benzyl)-8-(4-((6-(8-ethyl-3,8-diazabicyclo[3.2.1]octan-3-yl)pyridin-3-yl)ethynyl)benzyl)-16,16,16-trifluoro-9-hydroxy-15,15-dimethyl-3,6,13-trioxo-5-(1,1,1-trifluoro-2-methylpropan-2-yl)-2-oxa-4,7,11,12-tetraazahexadecan-14-yl)carbamate], for which the EC50 amounted to 6.57 nM. The same measure, in the same setting: next, `COC(=O)N[C@H](C(=O)N[C@@H](Cc1ccc(C#Cc2ccc(N3CC4CCC(C3)N4C)nc2)cc1)[C@@H](O)CN(Cc1c(F)cc(-c2ccccn2)cc1F)NC(=O)[C@@H](NC(=O)OC)C(C)(C)C(F)(F)F)C(C)(C)C(F)(F)F` [Example 242, methyl ((5S,8S,9S,14S)-11-(2,6-difluoro-4-(pyridin-2-yl)benzyl)-16,16,16-trifluoro-9-hydroxy-15,15-dimethyl-8-(4-((6-(8-methyl-3,8-diazabicyclo[3.2.1]octan-3-yl)pyridin-3-yl)ethynyl)benzyl)-3,6,13-trioxo-5-(1,1,1-trifluoro-2-methylpropan-2-yl)-2-oxa-4,7,11,12-tetraazahexadecan-14-yl)carbamate]: 3.45 nM.
